Source: patent US11806393B2, “Flavivirus peptide sequences, epitopes, and methods and uses thereof” (priority 2017, dated 2023)

How the values were obtained:
Assay type in all cases: cell-based, mouse
[1] = system: CD8+ T cells; assay: IFNγ-ELISPOT of predicted H-2b-binding ZIKV peptides; conditions: CD8+ T cells of mice infected with MR766 or FSS13025, day 7; positive: SFC per 10^6 CD8+ T cells ≥20 and stimulation index ≥2
Experimental: CD8^+ T cells were isolated by magnetic bead positive selection (Miltenyi Biotec, Germany). A total of 2×10^5 CD8^+ T cells were stimulated with 1×10^5 LPS-blast cells as antigen presenting cells (APCs) and 10 μg of individual ZIKV-derived peptide in 96-well flat-bottom plates (IMMOBILON™-P; Millipore, MA) coated with anti-mouse IFNγ monoclonal antibody (mAb) (clone AN18; Mabtech, Sweden) in triplicate. IFNγ-ELISPOT was performed as previously detailed (Elong Ngono et al., 2016). Positive peptides were those with a number of spot-forming cells (SFC) per 10^6 CD8^+ T cells ≥20 and a stimulation index ≥2 based on the negative control (DMSO). […]
The following results are with reference to FIG. 3A and FIG. 3B, where five-week-old LysMCre^+IFNAR^fl/fl were infected retro-orbitally with 10^4 FFU of ZIKV MR766 or FSS13025. […] A total of 244 peptides from ZIKV strains predicted to bind H-2Kb and H-2db with high affinity were screened. Two independent experiments for each ZIKV strain (n=5 mice for each experiment) were performed in triplicate per peptide. The data are expressed as the mean of spot forming cells (SFC) per 10^6 CD8^+ T cells, and error bars are represented as SEM. One-way ANOVA was used to compare the mean of each peptide with the control (DMSO) ([…]). […] The dotted line corresponds to the average amount of IFNγ produced by MOCK mice when stimulated with positive ZIKV-derived peptides (0.19% of IFNγ+CD8^+ T cells).

[2] = system: CD8+ T cells; assay: IFNγ ELISPOT, ZIKV-infected Ifnar-/- HLA-A*0101 transgenic mice; conditions: HLA-A*0101 mice; for SFC/10^6 CD8+ T cells, FSS13025: 7 days after ZIKV FSS13025; for SFC/10^6 CD8+ T cells, MR766: 7 days after ZIKV MR766; for immunodominance in IFNγ ELISPOT: immunodominant: >500 SFCs/10^6 CD8+ T cells, shared by both ZIKV strains
Experimental: Two ZIKV strains, MR766 (Uganda, 1947) and FSS13025 (Cambodia, 2010), were obtained from the World Reference Center for Emerging Viruses and Arboviruses (WRCEVA). The mouse-adapted DENV2 strain S221 is a triple-plaque purified clone derived from DENV2 D2S1038. Both ZIKV and DENV2 were amplified in C6/36 mosquito cells, and viral titers were measured using baby hamster kidney (BHK)-21 cell-based focus forming assay (FFA). For epitope screening, 5-week old mice (female or male) were infected retro-orbitally (R.O.) with either 1×102 FFU of ZIKV FSS13025 or ZIKV MR766, or 2×10^4 FFU of DENV2 S221 in 200 μl 10% FBS/PBS. Seven days after infection, CD8^+ T cells were isolated from splenocytes and used for ELISPOT assay, while the splenocytes were directly used for ICS assay. Additionally, 5-week old mice were inoculated I.P. with 2×10^3 FFU of DENV2 S221 for 4 weeks.
CD8^+ T cells were isolated from splenocytes using magnetic bead positive selection (Miltenyi Biotec, Germany) 7 days after virus infection. 2×10^5 CD8^+ T cells were stimulated with 1×10^5 LPS-blasts loaded with 10 μg of individual peptide in 96-well flat-bottom plates (IMMOBILON™-P; Millipore, Bedford, Mass.) that were coated with anti-IFNγ mAb (clone AN18; Mabtech, Stockholm, Sweden) in triplicate. Concanavalin A (ConA) was used as positive control. After 20 hours of incubation, biotinylated anti-mouse IFNγ mAb (R4-6A2; Mabtech), followed by ABC peroxidase (Vector Laboratories, Burlingame, Calif., USA) and then 3-amino-9-ethylcarbazole (Sigma-Aldrich, St. Louis, Mo., USA) were added into the wells. […] A peptide inducing a magnitude of >500 SFCs/10^6 CD8^+ T cells was considered as an immunodominant peptide.
The following results are with respect to FIG. 9, where IFNγ ELISPOT was performed using CD8+ T cells isolated from Ifnar^−/− HLA-B*0702 transgenic mice (a and b) and Ifnar^−/− HLA-A*0101 transgenic mice (d and e) 7 days after retro-orbital (R.O.) infection with 1×10^2 FFU of ZIKV strain FSS13025 or MR766. Two independent experiments performed in triplicate were averaged and the error bars represent the SEM. The data are expressed as the mean number of spot forming cells (SFC) per 10^6 CD8^+ T cells. The criteria for positivity were net SFC per 10^6 cells of >20, and a stimulation index of >2.0 when compared with the negative control. Dotted lines represent the cutoff value. * Indicates a positive response. All positive peptides were grouped according the corresponding ZIKV protein (c and f); white and black bars are the total IFNγ response of all identified positive peptides from an indicated protein; numbers in parentheses are the number of positive peptides in this protein. ConA denotes Concanavalin A.

[3] = system: CD44+ CD4+ T cells; assay: ICS, ZIKV SD001-infected Ifnar1-/- HLA-DRB1*0101 mice; conditions: ZIKV SD001, day 7
Experimental: Ifnar1^−/− HLA-DRB1*0101 mice were infected retro-orbitally with 1×10^2 FFU of ZIKV strain SD001 for 7 days. Splenocytes were stimulated in vitro with the indicated ZIKV-derived HLA-DRB1*0101-binding peptides for 6 h, and the frequency of CD44^+ CD4^+ T cells producing IFNγ, TNF, or IFNγ plus TNF (A), IL-2 (B), and IL-17 (C) were detected using the ICS assay. Data represent the mean±s.e.m. of four independent experiments (n=3-5 mice/experiment; total 16 mice). *P<0.05, **P<0.01, ***P<0.001, ****P<0.0001 by two-tailed Mann-Whitney test. Negative and positive refer to cells incubated alone or with PMA/ionomycin, respectively. […]
(§1) For the 30-peptide epitope screen, 5-week-old female or male mice were infected retro-orbitally (r.o.) with either 1×10^2 focus-forming units (FFU) of ZIKV SD001 or 2×10^3 FFU of DENV2 S221 in 200 μl of 10% fetal bovine serum in phosphate-buffered saline (FBS/PBS). Seven days after infection, spleens were removed and single-cell splenocyte suspensions were prepared. A total of 1×10^6 splenocytes was plated in each well of a 96-well U-bottom plate and stimulated with individual peptides (20 μg crude peptide per well) for 6 h. One hour into the incubation, brefeldin A (GolgiPlug, BD Biosciences) was added to the cells. Positive and negative controls were splenocytes stimulated with phorbol-12-myristate-13-acetate (PMA, 0.1 μg/ml) and ionomycin (1 μg/ml) or incubated alone, respectively.
(§2) After incubation of splenocytes with peptides or PMA/ionomycin, cells were harvested, washed, and incubated with Fc Block (CD16/CD32 mAb 2.4G2, BD Biosciences), followed by staining with fixable Live/Dead blue viability stain (Life technologies) and the following antibodies: PerCP-Cy5.5-conjugated anti-CD3 mAb (clone 145-2C11, Tonbo), APC-eFluor780-conjugated anti-CD4 mAb (clone GK1.5, Invitrogen), Brilliant Violet (BV) 785-conjugated anti-CD44 mAb (clone IMT, Biolegend), PE-conjugated anti-CD11a (clone M17/4, Biolegend), BV605-conjugated anti-CD49d (clone 9C10(MFR4.B, Biolegend), PE-conjugated anti-CD25 mAb (clone PC61, Biolegend), PE-conjugated or biotin-conjugated anti-CD185 mAb (CXCR5, clone SPRC15; Invitrogen), BV 605-conjugated anti-[…] mAb (PD1, clone 29F.1A12; Biolegend), and/or BV 421-conjugated streptavidin (#405225, Biolegend). Cells were then fixed and permeabilized using Cytofix/Cytoperm solution (BD Biosciences), followed by staining with FITC-conjugated anti-IFNγ mAb (clone XMG1.2, Tonbo), Alexa Fluor 700- or APC-conjugated anti-TNF mAb (clone MP6-XT22, eBioscience), PE-, BV 421-, or BV 711-conjugated anti-IL-2 mAb (clone JES6-5H4, Biolegend), APC-conjugated anti-IL-4 mAb (clone 11B11, Biolegend), PE-conjugated anti-IL-5 mAb (clone TRFK5, eBioscience), BV510-conjugated anti-IL-17A mAb (clone 17B7, eBioscience), and/or Alexa Fluor 700-conjugated anti-FoxP3 mAb (clone FJK-16S, eBioscience). Data were collected using an LSR Fortessa flow cytometer (BD Biosciences) and analyzed using FlowJo software X 10.0.7 (Tree Star).

[4] = system: CD44+ CD4+ T cells; assay: ICS, DENV2 S221-infected Ifnar1-/- HLA-DRB1*0101 mice
Experimental: Ifnar1^−/− HLA-DRB1*0101 mice were infected intraperitoneally with 2×10^3 FFU of DENV2 strain […] for 7 days. Splenocytes were stimulated in vitro with the indicated ZIKV-derived HLA-DRB1*0101-binding peptides for 6 h. The frequency of CD44^+ CD4^+ T cells producing IFNγ, TNF, or IFNγ plus TNF (A) or IL-2 (B) were detected using the ICS assay. Data represent the mean±s.e.m. of three independent experiments (n=3-4 mice/experiment; total 10 mice). *P<0.05, **P<0.01, ***P<0.001, ****P<0.0001 by two-tailed Mann-Whitney test. Negative and positive refer to cells incubated alone or with PMA/ionomycin, respectively.
as §1, §2

Substance | Strains (ZIKV strain for which the peptide induced a positive T cell response, IFNγ-ELISPOT) [1] | SFC/10^6 CD8+ T cells, FSS13025 [2] [SFC/10^6 CD8+ T cells] | SFC/10^6 CD8+ T cells, MR766 [2] [SFC/10^6 CD8+ T cells] | other results
20 (CAEAPNMKVI) [compound 20] | MR766/FSS | – | – | –
21 (IGVSNRDFV) [compound 21] | MR766/FSS | – | – | –
22 (MAVDMQTLTPV) [compound 22] | MR766/FSS | – | – | –
23 (RMAVLGDTA) [compound 23] | MR766/FSS | – | – | –
24 (RSYCYEASI) [compound 24] | MR766/FSS | – | – | –
25 (SNRDFVEGM) [compound 25] | MR766/FSS | – | – | –
26 (SQLTPLTLI) [compound 26] | MR766/FSS | – | – | –
27 (SVKKNLPFVM) [compound 27] | MR766/FSS | – | – | –
28 (VSFIFRAN) [compound 28] | MR766/FSS | – | – | –
29 (VVIKNGSYV) [compound 29] | MR766/FSS | – | – | –
DVEAWRDRY [FSS/MR-NS123-31] | – | 583 | 260 | immunodominance in IFNγ ELISPOT [2]: immunodominant
ELDPPFGDSY [FSS/MR-E377-386] | – | 286 | – | –
ETDENRAKV [FSS/MR-E159-167] | – | 512 | 516 | immunodominance in IFNγ ELISPOT [2]: immunodominant
FSDLYYLTM [FSS/MR-E198-206] | – | 398 | 388 | –
FTDPSSIAA [FSS/MR-NS3272-280] | – | – | 286 | –
GLDFSDLYY [FSS/MR-E195-203] | – | 993 | 647 | immunodominance in IFNγ ELISPOT [2]: immunodominant
HMCDATMSY [FSS/MR-prM40-48] | – | 288 | – | –
LPFVMALGLTAVRLV [NS2A134-198] | – | – | – | cytokines produced by ZIKV-primed CD4+ T cells on peptide stimulation [3]: did not elicit a response by ZIKV-primed cells; % CD4+ CD44+ T cells (DENV) TNFα+ ([4]; 7 days after DENV2 S221, 6 h stimulation): 0.397%; cytokines produced by DENV2-primed CD4+ T cells on peptide stimulation ([4]; DENV2 S221, day 7): induce TNF production
MSALEFYSY [FSS/MR-NS4B270-278] | – | 378 | – | –
MTERFQEAI [FSS/MR-NS4A14-22] | – | – | 266 | –
VTRRGNAYY [FSS-C125-prM8] | – | – | 266 | –
YAQMWQLLY [FSS/MR-NS5509-517] | – | 313 | 225 | –
YLAGASLIY [FSS/MR-NS4B231-239] | – | 1646 | 1574 | immunodominance in IFNγ ELISPOT [2]: most immunodominant epitope
YLDKQSDTQY [FSS/MR-E81-90] | – | 495 | 258 | –
